Source: patent publication US9895362B2, “Pharmaceutical composition combining an anticonvulsant and a derivate of nicotinic acid” (Farmacéuticos Rayere, S.A., priority 2014, dated 2018)

How the values were obtained:
[1] = tested on: mechanical allodynia (diabetic neuropathy induced with streptozotocin); assay: Model of pain due to diabetic neuropathy induced with streptozotocin; mechanical allodynia by Von Frey filaments assay; isobolographic analysis; format: in vivo, male BALB/c mice; details: for DE30 (effective dose that provides an analgesic effect of 30%): drugs administered individually, antiallodynic effect from AUC at 4 hours post-treatment; for dose-antiallodynic effect curve: gabapentin 50, 100, 150 mg/kg, lysine clonixinate 75, 150, 300 mg/kg, individually
Procedure: In this example, a model of neuropathic pain induced by streptozotocin in male BALB/c mice 6-8 weeks of age is used. The procedure used was based on one described and widely validated (Ahlgren, S. C. and Levine, J. D., 1993), which consists in an intraperitoneal injection of streptozotocin (45 mg/kg) in 0.2 mL of saline solution. […] The blood glucose levels were evaluated in 4 groups of mice with the following characteristics: 1) without treatment (basal), 2) with treatment in fasting, 3) after 1 day of treatment and 4) after 4 days of treatment. As a diabetes parameter, a plasma glucose level≧200 mg/dL was taken.
Allodynia was determined by mechanical stimulation through progressively […] application of different forces with Von Frey filaments of different caliber. The mice were placed in plastic cylinders on a wire mesh table for 15 minutes, ensuring that they were calm, and subsequently the filaments were progressively applied to the side of the leg. The filament of 0.02 g of force was the first to be applied to the left leg, five times during a total period of 30 seconds (approximately 2 seconds per stimulus), the reaction of the mouse being determined after each application. The response observed is the withdrawal or licking of the leg. If three of the five stimuli are observed, the reaction is considered positive and the mechanical threshold of the response is established.
Different groups were used to characterize the dose-response curve of the analgesics, administering the drugs after inducing of diabetes. The doses for gabapentin were 50, 100 and 150 mg/kg, and for lysine clonixinate they were 75, 150 and 300 mg/kg. Groups of animals were used with n≧8. A 0.9% saline solution was administered by intraperitoneal route as a control of each experimental group.
For determination of antiallodynic efficacy, the mean threshold in each group was plotted as a function of time after the administration of the drugs individually or in combination, and the area below the curve (ABC) was obtained using the trapezoid rule. The percentage increase of the threshold was calculated using the following equation: […]
To evaluate the net antiallodynic effect, the area under the curve of the time courses evaluated at 4 hours post-treatment was obtained.
To evaluate the effect of the CLG combination in relation to the effect of each drug individually, isobolographic analysis was used. […] From the respective DE30 of the individual drugs, combinations of gabapentin and CL in fixed proportions were made and evaluated.
Subsequently, a dose-response curve was plotted after coadministration of the two drugs. […] The data represent the mean and the standard error of 8 mice.
Once the DE30 values, both the theoretical and experimental, were obtained, a statistical comparison of the additive theoretical point and the experimental DE30 value was done using a Student's t-test. The type of interaction between the two drugs was established by constructing an isobologram as follows. For each of the individual agents, the dose that produces 30% of antiallodynic effect (DE30) was plotted in rectangular coordinates (x, y). The line that connects these two points is termed “isobolic” or the “additivity line,” and on this line are all the possible combinations of the two drugs that produce only an additivity or summation effect.
To describe the magnitude of the interaction, the interaction index value (γ), which is a quantitative measure of the interaction between two drugs, was calculated: […]

[2] = tested on: mechanical allodynia (injury of the sciatic nerve); assay: Experimental model of neuropathic pain due to injury (ligation and cutting) of the sciatic nerve; mechanical allodynia by Von Frey filaments assay; isobolographic analysis; format: in vivo, mice; details: for DE30: drugs administered individually, intraperitoneal, linear regression, AUC at 4 hours; for dose dependence of antiallodynic effect: intraperitoneal administration
Source text: To evaluate the analgesic efficacy of the CLG combination in neuropathic pain due to injury to the nerve, an experimental model of neuropathic pain due to ligation and cutting of sciatic nerve in mice was used. The procedure used was based on that described by I. Decosterd and C. J. Woolf (2000), which consists of isolating, tying and injuring the sciatic nerve of the mouse, followed by evaluation of the mechanical allodynia resulting from damage to the nerve.
The surgery consisted of making an incision of approximately 1 cm in the direction proximal longitudinal to the knee and afterwards opening the skin by blunt dissection and separating the muscular layer by dissection lateral to the blood vessel near the femur. Then the right sciatic nerve was exposed under the muscles, separating them with care to display the sciatic nerve in the region where it branches from the sural nerve. Only the sciatic nerve was sutured with No. 6 thread, trying not to damage the sural nerve in any way. A tight surgical knot was made on the sciatic nerve by cutting below the suture with a pair of tweezers, then stitching the muscle layer and the skin by surgical knots. […] Consequently, the antiallodynic effect of the drugs is evaluated from the second or third day after the surgery. For validation of the model, as a surgery control group, a sham surgery was used, in which the sciatic nerve is only exposed surgically, without ligation or cutting, and then the muscle tissue and skin is stitched.
In all groups, the evaluation of mechanical allodynia with the application of Von Frey filaments was done in the same manner as described above for the model of pain due to diabetic neuropathy. The response thresholds in both legs, ipsilateral (right) and contralateral (left), were evaluated.
For systemic administration of the drugs individually and in combinations in the mechanical allodynia model, different groups were used to characterize the dose-response curve by administering the drugs on the third day after the surgery. The doses for gabapentin were 50, 100 and 150 mg/kg, and for lysine clonixinate they were 75, 150 and 300 mg/kg. Afterwards, as described below, other groups were administered different doses of the CLG combination. Both gabapentin and lysine clonixinate and their combinations were dissolved in a 0.9% saline solution. Groups of animals were used with an experimental n of 6 to 8. A 0.9% saline solution was administered by intraperitoneal route to an experimental control group.
To evaluate the net antiallodynic effect, the area under the curve of the time courses evaluated at 4 hours post treatment, both of the ipsilateral and the contralateral leg, was obtained using the trapezoid rule. […] FIG. 10 represents the dose-antiallodynic effect curves, corresponding to gabapentin and lysine clonixinate administered individually. By means of linear regression, the DE30 values of the drugs administered individually were obtained.
In the same way as was done in the previous model, isobolographic analysis was used to evaluate the effect of the CLG combination in relation to the effect of each drug individually. From the respective DE30 of the individual drugs, combinations of gabapentin and CL in fixed proportions were evaluated.

[3] = tested on: neurological profile (behavior, reflexes, convulsions, motor coordination); assay: Neurological profile after subchronic administration (14 days); format: in vivo, mice; details: for value of all the parameters of the neurological profile: 14 days of treatment, at these doses; for Behavior: Exploratory Activity / Behavior: Flabbiness / Behavior: Irritability / Behavior: State of Alert / Behavior: Straightening of Tail / Behavior: Vocalization / Convulsions: Clonic / Convulsions: Gait Movements / Convulsions: Jumping Movement / Convulsions: Tonic / Motor Coordination: Abnormal Gait / Motor Coordination: Paralysis / Motor Coordination: Running in Circles / Motor Coordination: Staggering Gait / Reflexes: Corneal: i.p. daily 14 days, gabapentin 31 mg/kg, lysine clonixinate 150 mg/kg, or both
Procedure: The motor activity and biochemical profile evaluation data were evaluated by an analysis of variance (ANOVA), followed by a Dunnett test. The neurological profile data were evaluated by grading, with 0=null, […] and 3=significant. […] This administration was done consecutively every 24 hours. After 14 days of exposure, toxicological tests were done. A daily evaluation was simultaneously done of the neurological profile, since one critical aspect in all experimental models of nervous system pathologies is evaluation of the final neurological prognosis. In the case of subchronic administration of medication, evaluation of the final functional deficit is a valuable tool. Therefore, after receiving a daily dose for 14 days, the mice underwent an evaluation of the neurological profile of the experimental animals. This evaluation included parameters such as behavior, reflexes, convulsions and motor coordination. Each parameter was graded on a scale of 0=null, 1=slight, 2=moderate and 3=considerable.

[4] = patients treated with gabapentin; cited from earlier work
neuropathic pain = assay: Overall conclusions from both mouse models of neuropathic pain; format: in vivo, mice; details: lysine clonixinate alone, in the studies performed
Source text: In the present study, we used two mouse models to study neuropathic pain: the model of diabetic neuropathy induced by streptozotocin and the model of neuropathic pain induced by a physical injury to the sciatic nerve.

| SMILES | DE30 (effective dose that provides an analgesic effect of 30%) ([1]; diabetic neuropathy model) | dose-antiallodynic effect curve [1] | DE30 [2] | dose dependence of antiallodynic effect [2] | value of all the parameters of the neurological profile [3] | Behavior: Exploratory Activity [3] | Behavior: Flabbiness [3] | Behavior: Irritability [3] | Behavior: State of Alert [3] | Behavior: Straightening of Tail [3] | Behavior: Vocalization [3] | Convulsions: Clonic [3] | Convulsions: Gait Movements [3] | Convulsions: Jumping Movement [3] | Convulsions: Tonic [3] | Motor Coordination: Abnormal Gait [3] | Motor Coordination: Paralysis [3] | Motor Coordination: Running in Circles [3] | Motor Coordination: Staggering Gait [3] | Reflexes: Corneal [3] | also measured |
| --- | --- | --- | --- | --- | --- | --- | --- | --- | --- | --- | --- | --- | --- | --- | --- | --- | --- | --- | --- | --- | --- |
| NCC1(CC(=O)O)CCCCC1 [gabapentin, 2-[1-(aminomethyl)cyclohexyl] acetic acid] | 39.62 ± 1.35 mg/kg | dose-dependent increase | 83.82 mg/kg | dose dependent increase | 0 | 0 | 0 | 0 | 0 | 0 | 0 | 0 | 0 | 0 | 0 | 0 | 0 | 0 | 0 | 0 | DE30 (effective dose that provides an analgesic effect of 30%) ([1]; diabetic neuropathy model, listed as Gabapentin): 39.62 mg/kg; patients showing drowsiness, dizziness, ataxia, headache and fatigue [4]: more than 10% |
| Cc1c(Cl)cccc1Nc1ncccc1C(=O)O.NCCCC[C@H](N)C(=O)O [lysine clonixinate, lysine salt of 2-[(3-chloro-2-methylphenyl)amino]-3-pryridinecarboxylic acid] | 150.41 ± 25.49 mg/kg | dose-dependent increase | 579.67 mg/kg | dose dependent increase | 0 | 0 | 0 | 0 | 0 | 0 | 0 | 0 | 0 | 0 | 0 | 0 | 0 | 0 | 0 | 0 | antiallodynic effect (in words) ([1]; administered individually, diabetic neuropathy model): moderate antiallodynic effect; DE30 (effective dose that provides an analgesic effect of 30%) ([1]; diabetic neuropathy model, listed as Lysine Clonixinate): 150.41 mg/kg; antiallodynic effect (in words) ([2]; administered individually): moderate antiallodynic effect; effect on neuropathic pain (maximum found) (neuropathic pain): up to 30% |
